One assay concerns Caenorhabditis elegans. Put plainly: Primary screen, infrared-based (WMicroTracker ONE) C. elegans L4 motility assay at 40 µM. The class given is cell-based, Caenorhabditis elegans (Bristol N2). The following applies: primary screen at 40 µM, C. elegans L4. On the procedure:
Methods to cultivate C. elegans (Bristol N2) and synchronize growth to the L4 stage were as described. WMicroTracker ONE (Phylumtech, Argentina) detects movement by measuring the scattering of infrared light beams that are projected into each well of a microtiter plate (two 880 nm beams/well in a 96w plate).
Synchronized C. elegans L4 were detached from agar and collected in M9 buffer. Worms were centrifuged for 1 min at 1,900 g and washed in S medium to decrease the concentration of E. coli OP50 that might interfere with infrared detection. Control and assay compounds (1 µL) in DMSO (Fisher Scientific, Cat# BP231-100) were spotted into each well of a clear, flat-bottomed 96-well polystyrene plate (Fisherbrand, Cat# FB012931). DMSO (1%) was used as the negative control. Approximately 70 L4 in 100 µL S medium were added per well. First pass screens employed 40 µM compound, and motility was measured every 20 min for 24 h in the WMicroTracker ONE reader in which the temperature was 25 ± 1 °C. Motility was normalized relative to the DMSO controls. Hits were defined as compounds that decreased motility to ≤ 25% of that in DMSO control worms.
With `O[C@@H](c1cc(C(F)(F)F)nc2c(C(F)(F)F)cccc12)[C@H]1CCCCN1` [MMV000014], the “C. elegans Mean motility vs. DMSO control (%)” value turned out to be 88.32%.
Regarding `CCCCc1oc2ccccc2c1C(=O)c1cc(I)c(OCCN(CC)CC)c(I)c1` [MMV001992], the “C. elegans Mean motility vs. DMSO control (%)” value worked out at 67.16%.
Still for that read-out and setting: to `Cc1onc(-c2ccccc2)c1-c1ccc(S(N)(=O)=O)cc1` [MMV002260] belongs 95.37%; to `Cc1ncc([N+](=O)[O-])n1CC(C)O` (stereo not drawn) [MMV002287], 78.09%.
With `COc1cc2c3cc1Oc1c(OC)c(OC)cc4c1C(Cc1ccc(O)c(c1)Oc1ccc(cc1)CC3N(C)CC2)N(C)CC4.Cl` (stereo not drawn) [MMV007474], the “C. elegans Mean motility vs. DMSO control (%)” value came to 94.2%.
With `CC[C@@H]([C@H](C)O)n1ncn(-c2ccc(N3CCN(c4ccc(OC[C@@H]5CO[C@@](Cn6cncn6)(c6ccc(F)cc6F)C5)cc4)CC3)cc2)c1=O` [MMV688774], the “C. elegans Mean motility vs. DMSO control (%)” value stood at 86.8%.
Still for that read-out and setting: to `O=C(NC1CCCc2c1[nH]c1ccc(Cl)cc21)c1ccccn1` (stereo not drawn) [MMV690621] belongs 85.65%.
`Cn1cc(CN2CCc3c(c(C(=O)NCc4nccs4)nn3Cc3ccccc3)C2)c2ccccc21` [MMV1167451]: the “C. elegans Mean motility vs. DMSO control (%)” value is given as 84.51%.
`CCCOc1ccc(C(F)(F)F)cc1NC(=O)c1nc2nccc(C)n2n1` [MMV1262756]: the “C. elegans Mean motility vs. DMSO control (%)” value was found to be 25.74%.
For `O=C(Nc1ncccc1O)c1ccc(Cn2cccn2)cc1` [MMV1266067], the “C. elegans Mean motility vs. DMSO control (%)” value is recorded as 85.15%.
As for `Cn1ccnc1SCC(=O)Nc1ccc(C(=O)Nc2ncccc2O)cc1` [MMV1267536], the “C. elegans Mean motility vs. DMSO control (%)” value is recorded as 64.36%.
Regarding `O=C(Nc1ncccc1O)c1ccc(S(=O)(=O)NCCc2cccs2)cc1` [MMV1435700], the “C. elegans Mean motility vs. DMSO control (%)” value is reported as 75.25%.
For `C[C@H](Cn1cnc2c(N)ncnc21)OCP(=O)(O)O` [MMV1580478], the “C. elegans Mean motility vs. DMSO control (%)” value is 95.45%.
As to `CC(C)Oc1ccc(-c2nc(-c3cccc4c3CC[C@@H]4NCCO)no2)cc1C#N` [MMV1580492], the “C. elegans Mean motility vs. DMSO control (%)” value amounted to 83.52%.
Same read-out and setting: to `CC(C)(C)NC(=O)N[C@H](C(=O)N1C[C@H]2[C@@H]([C@H]1C(=O)NC(CC1CCC1)C(=O)C(N)=O)C2(C)C)C(C)(C)C` (stereo partly drawn) [MMV1580497] belongs 86.33%; to `C[C@@H](c1nc(-c2ccc(C#N)cc2)cs1)[C@](O)(Cn1cncn1)c1ccc(F)cc1F` [MMV1634362], 84.55%; to `Oc1ccccc1CCN[C@H]1CCc2ccc(F)cc21` [MMV1726212], 87.88%.
Still for that read-out and setting: to `CCn1cnc2c(N3CCC[C@H](c4ccncc4)C3)ncnc21` [MMV1752548] belongs 78.79%; to `O=C(Nc1cnc2ccccc2c1)c1ccccc1C(=O)c1ccc(F)cc1` [MMV1760745], 93.6%.
As for `c1ccc(-c2ccnc(C3CCN(CC45CNCC4C5)CC3)n2)cc1` (stereo not drawn) [MMV1797658], the “C. elegans Mean motility vs. DMSO control (%)” value was found to be 81.14%.
Regarding `CO[C@H]1C[C@H](O[C@H]2[C@H](C)O[C@@H](O[C@@H]3/C(C)=C/C[C@@H]4C[C@@H](C[C@]5(C=C[C@H](C)[C@@H](C6CCCCC6)O5)O4)OC(=O)[C@@H]4C=C(C)[C@@H](O)[C@H]5OC/C(=C\C=C\[C@@H]3C)[C@]54O)C[C@@H]2OC)O[C@@H](C)[C@@H]1O` [doramectin, reference compound], the “C. elegans Mean motility vs. DMSO control (%)” value worked out at 6.74%.
The same measure, in the same setting: to abamectin [reference compound] belongs 3.6%; to eprinomectin [reference compound], 13.19%; to milbemectin [reference compound], 1.69%.

The same assay, now with this note: primary screen at 40 µM, C. elegans L4, WMicroTracker ONE.
On to `O[C@@H](c1cc(C(F)(F)F)nc2c(C(F)(F)F)cccc12)[C@H]1CCCCN1` [MMV000016], for which the “C. elegans Mean motility vs. DMSO control (%)” value stood at 108.37%.
The same measure, in the same setting: to `NS(=O)(=O)c1cc2c(cc1Cl)N=CNS2(=O)=O` [MMV001901] belongs 96.35%; to `OC(Cn1cncn1)(Cn1cncn1)c1ccc(F)cc1F` [MMV002337], 103.8%; to `COc1ccc(Cc2nccc3cc(OC)c(OC)cc23)cc1OC` [MMV002798], 96.9%.
As to `Cc1ccc(NC(=O)c2ccc(CN3CCN(C)CC3)cc2)cc1Nc1nccc(-c2cccnc2)n1` [MMV009948], the “C. elegans Mean motility vs. DMSO control (%)” value was 98.37%.
`CN1CCCC1CCO[C@](C)(c1ccccc1)c1ccc(Cl)cc1` (stereo partly drawn) [MMV637229]: the “C. elegans Mean motility vs. DMSO control (%)” value was 98.88%.
For the compound `CCC(C)n1ncn(-c2ccc(N3CCN(c4ccc(OCC5COC(Cn6cncn6)(c6ccc(Cl)cc6Cl)O5)cc4)CC3)cc2)c1=O` (stereo not drawn) [MMV637528], the “C. elegans Mean motility vs. DMSO control (%)” value was 97.65%.
Regarding `CC(=O)N1CCN(c2ccc(OC[C@@H]3CO[C@@](Cn4ccnc4)(c4ccc(Cl)cc4Cl)O3)cc2)CC1` [MMV637533], the “C. elegans Mean motility vs. DMSO control (%)” value was determined as 113.2%.
For `CC(C)(C)NC(=O)[C@@H]1CN(Cc2cccnc2)CCN1C[C@@H](O)C[C@@H](Cc1ccccc1)C(=O)N[C@H]1c2ccccc2C[C@H]1O` [MMV659198], the “C. elegans Mean motility vs. DMSO control (%)” value came to 103.91%.
For `CO[C@@H](C(=O)N1Cc2[nH]nc(NC(=O)c3ccc(N4CCN(C)CC4)cc3)c2C1)c1ccccc1` [MMV676600], the “C. elegans Mean motility vs. DMSO control (%)” value was determined as 100.25%.
`CC(=O)Oc1ccccc1C(=O)Nc1ncc([N+](=O)[O-])s1` [MMV688991]: the “C. elegans Mean motility vs. DMSO control (%)” value is given as 112.67%.
Regarding `CC(C)C[C@H](NC(=O)[C@@H](NC(=O)c1cccc(-c2ccccc2)n1)[C@@H](C)O)B(O)O` [MMV690548], the “C. elegans Mean motility vs. DMSO control (%)” value came out at 97.97%.
Same read-out and setting: to `CNCc1[cH-]ccc1CNc1ccnc2cc(Cl)ccc12.[Fe+2].c1cc[cH-]c1` [MMV892669] belongs 102.88%; to `O=C(Nc1ncccc1O)c1ccc(N2CCOCC2)nc1` [MMV1103183], 99.33%.
Turning to `CCC1=C(c2ccc(C)cc2)S(=O)(=O)N=C1N1CCC(C(=O)NCCN2CCCC[C@@H]2C)CC1` [MMV1704710], the “C. elegans Mean motility vs. DMSO control (%)” value was 104.04%.
The same measure, in the same setting: to `O=C(NC1CCN(CCOc2ccc(Cl)cc2)CC1)c1c[nH]c2ccncc2c1=O` [MMV1798946] belongs 99.33%; to `CC[C@@H](C(=O)[C@@H](C)[C@@H](O)[C@H](C)[C@@H]1O[C@@H]([C@@H](CC)C(=O)O)CC[C@@H]1C)[C@H]1O[C@]2(C=C[C@@H](O)[C@]3(CC[C@@](C)([C@H]4CC[C@](O)(CC)[C@H](C)O4)O3)O2)[C@H](C)C[C@@H]1C` [MMV1804312], 96.95%.

Staying with this assay, now noted: primary screen at 40 µM; hit if motility < 25%.
Turning to `CO[C@H]1C[C@H](O[C@H]2[C@H](C)O[C@@H](O[C@@H]3/C(C)=C/C[C@@H]4C[C@@H](C[C@]5(C=C[C@H](C)[C@@H](C6CCCCC6)O5)O4)OC(=O)[C@@H]4C=C(C)[C@@H](O)[C@H]5OC/C(=C\C=C\[C@@H]3C)[C@]54O)C[C@@H]2OC)O[C@@H](C)[C@@H]1O` [doramectin, reference compound], the “C. elegans NOTES (HIT)” value is “HIT”.
With abamectin [reference compound], the “C. elegans NOTES (HIT)” value is “HIT”.
Still for that read-out and setting: the entry for eprinomectin [reference compound] is “HIT”.
On to milbemectin [reference compound], for which the “C. elegans NOTES (HIT)” value is reported as “HIT”.

The values above are taken from PMC12502323, “Discovery of small molecules with anthelmintic potential in the Medicines for Malaria Venture’s COVID and Global Health Priority Boxes using an infrared-based assay for Caenorhabditis elegans motility” (BMC Research Notes, 2025).
